Reference: patent US20210115104A1, “AMYLIN ANALOGUES” (Zealand Pharma A/S, priority 2015, published 2021)
*1 amine or outer side, *2 acyl side, *3 side chain or, on linkers, in order; H or OH if unused. Where a SMILES comes first, the peptide text is derived from it. Bridges are numbered along the chain shown (N, C = ends). [ ]: non-standard residue; d: D form. The star is where a group is joined. C20 diacid = O=C(O)CCCCCCCCCCCCCCCCCCC(=O)*; γGlu = O=C(O)[C@H](CCC(=O)[*:2])N[*:1]; Hyp = O=C(O)[C@@H]1C[C@@H](O)CN1; NMeI = CC[C@H](C)[C@H](NC)C(=O)O; Sar = CNCC(=O)O

Tests used:
[1] = target: T1, human calcitonin receptor (hCTR2) (Homo sapiens, UniProt P30988); assay: hCTR2 cAMP assay (AlphaScreen) in COS7 cells; assay type: cell-based; conditions: cAMP induction, COS7 cells expressing hCTR2; Table 1; read-out: hCTR2 EC50
T1 construct: expressed in transfected cells
T1 sequence (P30988 25-474): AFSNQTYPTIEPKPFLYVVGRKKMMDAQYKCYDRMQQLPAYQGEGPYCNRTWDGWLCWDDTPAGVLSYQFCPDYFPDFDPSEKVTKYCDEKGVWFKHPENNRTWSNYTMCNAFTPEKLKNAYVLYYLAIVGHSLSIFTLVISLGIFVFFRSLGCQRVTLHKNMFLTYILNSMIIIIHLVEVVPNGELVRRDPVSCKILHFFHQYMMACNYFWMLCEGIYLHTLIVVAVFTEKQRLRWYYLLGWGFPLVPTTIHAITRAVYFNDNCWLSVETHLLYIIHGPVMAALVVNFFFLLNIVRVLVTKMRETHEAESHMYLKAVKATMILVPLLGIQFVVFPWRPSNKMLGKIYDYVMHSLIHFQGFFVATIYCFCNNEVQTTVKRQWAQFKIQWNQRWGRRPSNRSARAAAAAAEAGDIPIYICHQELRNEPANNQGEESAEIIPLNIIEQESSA
Outline: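 cAMP induction, read by AlphaScreen after lysis, gives EC50 values via 4PL curve fitting. Peptides were applied at rising concentrations for 15 min at 37 °C, with IBMX and 0.1% casein in HEPES-buffered Tyrode pH 7.4, to COS7 cells (no endogenous RAMPs) stably expressing human CTR2.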

[2] = Assessment of chemical stability (RP-HPLC normalized purity); assay type: physicochemical; conditions: 7 days, 40° C., Table 1
Outline: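 Purity after 7 days at 40° C is expressed relative to T=0 (set to 100) for each pH. Samples at 0.2 mg/ml, pH 4, 6, 7.5 or 9, analyzed by RP-HPLC with UV 220 nm on C8 (ammonium formate) or C18 (TFA) gradients.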

[3] = test system: Sprague Dawley rats; assay: Oral glucose tolerance test (OGTT) in rats; assay type: in vivo, rat; conditions: fasted rats, 30 nmol/kg sc 16 hours before oral glucose bolus 2 g/kg
Method: Male Sprague Dawley rats [Crl:CD(SD), weight range 260-280 g upon arrival] were housed in groups of 2 (n=2) or 3 (n=3). The animals were maintained on a 12 h/12 h light/dark cycle. Animals had access ad libitum to a standard chow diet and tap water (domestic quality tap water) during the initial one week acclimatization period.
Fasted rats (fasted for 7 hours) were employed in the test. Rats had previously been randomized into two groups, designated test group and control group, respectively. The total number of animals per group was 10 (n=10).
A single subcutaneous injection of either vehicle (control group; vehicle: 50 mM histidine buffer, pH 7, with 200 mM mannitol) or Compound 7 in vehicle [test group; dose 30 nmol/kg body weight (2 ml/kg)] was subsequently administered to each animal. All rats then received an oral glucose bolus (2 g/kg) 16 hours after vehicle or compound administration. Blood glucose levels in tail blood samples taken 20 min. before glucose administration (time zero, baseline) and then 15 min., 30 min., 60 min., 90 min., 120 min. and 180 min after glucose administration were determined using a glucometer (GlucoSmart Swing™; MSP Bodmann GmbH, Germany).
The data are presented as mean±S.E.M. The two-sided unpaired Student t-test was used for statistical comparison of the test group and the control group.

## CC[C@H](C)[C@@H](C(=O)N[C@@H](CC(C)C)C(=O)N[C@@H](CO)C(=O)N[C@@H](CO)C(=O)N[C@H](C(=O)N[C@@H](CCC(=O)O)C(=O)N[C@H](C(=O)NCC(=O)N[C@@H](CO)C(=O)N[C@@H](CC(N)=O)C(=O)N[C@H](C(=O)N1C[C@H](O)C[C@H]1C(N)=O)[C@@H](C)O)C(C)C)[C@@H](C)O)N(C)C(=O)[C@H](C)NC(=O)CN(C)C(=O)[C@H](Cc1ccccc1)NC(=O)[C@H](CO)NC(=O)[C@H](CO)NC(=O)[C@H](CCCNC(=N)N)NC(=O)[C@H](CCC(N)=O)NC(=O)[C@H](CC(C)C)NC(=O)[C@H](Cc1ccccc1)NC(=O)[C@H](Cc1c[nH]cn1)NC(=O)[C@H](C)NC(=O)[C@H](CC(C)C)NC(=O)[C@H](CCCNC(=N)N)NC(=O)[C@H](CCC(=O)O)NC(=O)[C@@H](NC(=O)[C@H](C)NC(=O)[C@@H]1CSSC[C@H](NC(=O)[C@H](CCCNC(=N)N)NC(=O)CC[C@H](NC(=O)CCCCCCCCCCCCCCCCCCC(=O)O)C(=O)O)C(=O)NCC(=O)N[C@@H]([C@@H](C)O)C(=O)N[C@@H](C)C(=O)N[C@@H]([C@@H](C)O)C(=O)N1)[C@@H](C)O [Compound 7, [19CD]-isoGlu-R-C( )-GTAT-C( )-ATERLAHFLQRSSF-Gly(Me)-A-Ile(Me)-LSSTEVGSNT-Hyp-NH2] ({C20 diacid-γGlu}-RCGTATCATERLAHFLQRSSF[Sar]A[NMeI]LSSTEVGSNT[Hyp]-NH2; disulfide 2-7)
[1]
  EC50: 0.087 nM
[2]; pH 4, 0.2 mg/ml
  Normalized purity after 7 days, 40° C., pH 4: A (A = >90%)
[2]; pH 6, 0.2 mg/ml
  Normalized purity after 7 days, 40° C., pH 6: A (A = >90%)
[2]; pH 7.5, 0.2 mg/ml
  Normalized purity after 7 days, 40° C., pH 7.5: A (A = >90%)
[2]; pH 9, 0.2 mg/ml
  Normalized purity after 7 days, 40° C., pH 9: A (A = >90%)
[3]
  Glucose AUC, t = 15-180 min.; mean ± S.E.M.: 122 ± 29 mmol·min/L
